Assay: xn = mol fraction of the nth substance listed
Conditions: 100 kPa

OCCO + CCCC[n+]1ccn(C)c1.O=S(=O)([O-])C(F)(F)F
speed of sound (298.15 K, x2 = 0): 1655 m/s | viscosity (298.15 K, x2 = 0): 16.39 mPa·s | speed of sound (308.15 K, x2 = 0): 1631.5 m/s | viscosity (308.15 K, x2 = 0): 11.16 mPa·s | speed of sound (313.15 K, x2 = 0): 1619.7 m/s | viscosity (313.15 K, x2 = 0): 9.34 mPa·s | speed of sound (318.15 K, x2 = 0): 1607.9 m/s | viscosity (318.15 K, x2 = 0): 7.91 mPa·s | speed of sound (323.15 K, x2 = 0): 1596.1 m/s | viscosity (323.15 K, x2 = 0): 6.75 mPa·s

CCCC[n+]1ccn(C)c1.O=S(=O)([O-])C(F)(F)F + OCCO
speed of sound (298.15 K, x1 = 0.1936): 1517.5 m/s | viscosity (298.15 K, x1 = 0.1936): 17.41 mPa·s | speed of sound (298.15 K, x1 = 0.2985): 1478.8 m/s | viscosity (298.15 K, x1 = 0.2985): 20.69 mPa·s | speed of sound (298.15 K, x1 = 0.3912): 1456.1 m/s | viscosity (298.15 K, x1 = 0.3912): 23.59 mPa·s | speed of sound (298.15 K, x1 = 0.4999): 1437.2 m/s | viscosity (298.15 K, x1 = 0.4999): 26.6 mPa·s | speed of sound (298.15 K, x1 = 0.6055): 1423.5 m/s | viscosity (298.15 K, x1 = 0.6055): 29.8 mPa·s | speed of sound (298.15 K, x1 = 0.7966): 1410.5 m/s | viscosity (298.15 K, x1 = 0.7966): 42 mPa·s | speed of sound (298.15 K, x1 = 0.9035): 1404.8 m/s | viscosity (298.15 K, x1 = 0.9035): 57.9 mPa·s | speed of sound (298.15 K, x1 = 1): 1393.2 m/s | viscosity (298.15 K, x1 = 1): 82.4 mPa·s | speed of sound (303.15 K, x1 = 0.1936): 1505.9 m/s | viscosity (303.15 K, x1 = 0.1936): 14.07 mPa·s | speed of sound (303.15 K, x1 = 0.2985): 1467.3 m/s | viscosity (303.15 K, x1 = 0.2985): 16.81 mPa·s | speed of sound (303.15 K, x1 = 0.3912): 1444.6 m/s | viscosity (303.15 K, x1 = 0.3912): 19.28 mPa·s | speed of sound (303.15 K, x1 = 0.6055): 1412.2 m/s | viscosity (303.15 K, x1 = 0.6055): 24.5 mPa·s | speed of sound (303.15 K, x1 = 0.7966): 1399.2 m/s | viscosity (303.15 K, x1 = 0.7966): 34.3 mPa·s | speed of sound (303.15 K, x1 = 0.9035): 1393.6 m/s | viscosity (303.15 K, x1 = 0.9035): 47 mPa·s | speed of sound (303.15 K, x1 = 1): 1382.8 m/s | viscosity (303.15 K, x1 = 1): 66.7 mPa·s | speed of sound (308.15 K, x1 = 0.0926): 1551.3 m/s | viscosity (308.15 K, x1 = 0.0926): 10.51 mPa·s | speed of sound (308.15 K, x1 = 0.1936): 1494.4 m/s | viscosity (308.15 K, x1 = 0.1936): 11.7 mPa·s | speed of sound (308.15 K, x1 = 0.3912): 1433.2 m/s | viscosity (308.15 K, x1 = 0.3912): 15.95 mPa·s | speed of sound (308.15 K, x1 = 0.6055): 1400.9 m/s | viscosity (308.15 K, x1 = 0.6055): 20.86 mPa·s | speed of sound (308.15 K, x1 = 0.9035): 1382.5 m/s | viscosity (308.15 K, x1 = 0.9035): 38.6 mPa·s | speed of sound (308.15 K, x1 = 1): 1371.7 m/s | viscosity (308.15 K, x1 = 1): 52.9 mPa·s | speed of sound (313.15 K, x1 = 0.0926): 1539.6 m/s | viscosity (313.15 K, x1 = 0.0926): 8.82 mPa·s | speed of sound (313.15 K, x1 = 0.1936): 1482.8 m/s | viscosity (313.15 K, x1 = 0.1936): 9.82 mPa·s | speed of sound (313.15 K, x1 = 0.3912): 1421.9 m/s | viscosity (313.15 K, x1 = 0.3912): 13.48 mPa·s | speed of sound (313.15 K, x1 = 0.6055): 1389.8 m/s | viscosity (313.15 K, x1 = 0.6055): 17.79 mPa·s | speed of sound (313.15 K, x1 = 0.7966): 1376.9 m/s | viscosity (313.15 K, x1 = 0.7966): 24.6 mPa·s | speed of sound (313.15 K, x1 = 0.9035): 1371.5 m/s | viscosity (313.15 K, x1 = 0.9035): 32.3 mPa·s | speed of sound (313.15 K, x1 = 1): 1360.7 m/s | viscosity (313.15 K, x1 = 1): 43.7 mPa·s | speed of sound (318.15 K, x1 = 0.1936): 1471.4 m/s | viscosity (318.15 K, x1 = 0.1936): 8.3 mPa·s | speed of sound (318.15 K, x1 = 0.2985): 1433.2 m/s | viscosity (318.15 K, x1 = 0.2985): 9.91 mPa·s | speed of sound (318.15 K, x1 = 0.3912): 1410.7 m/s | viscosity (318.15 K, x1 = 0.3912): 11.51 mPa·s | speed of sound (318.15 K, x1 = 0.6055): 1378.7 m/s | viscosity (318.15 K, x1 = 0.6055): 15.37 mPa·s | speed of sound (318.15 K, x1 = 0.6922): 1371.2 m/s | viscosity (318.15 K, x1 = 0.6922): 17.42 mPa·s | speed of sound (318.15 K, x1 = 0.7966): 1365.9 m/s | viscosity (318.15 K, x1 = 0.7966): 21.09 mPa·s | speed of sound (318.15 K, x1 = 0.9035): 1360.5 m/s | viscosity (318.15 K, x1 = 0.9035): 27.3 mPa·s | speed of sound (318.15 K, x1 = 1): 1349.9 m/s | viscosity (318.15 K, x1 = 1): 36.3 mPa·s | speed of sound (323.15 K, x1 = 0.0926): 1516.4 m/s | viscosity (323.15 K, x1 = 0.0926): 6.2 mPa·s | speed of sound (323.15 K, x1 = 0.2985): 1421.9 m/s | viscosity (323.15 K, x1 = 0.2985): 8.4 mPa·s | speed of sound (323.15 K, x1 = 0.4999): 1381 m/s | viscosity (323.15 K, x1 = 0.4999): 11.65 mPa·s | speed of sound (323.15 K, x1 = 0.6055): 1367.7 m/s | viscosity (323.15 K, x1 = 0.6055): 13.42 mPa·s | speed of sound (323.15 K, x1 = 0.6922): 1360.3 m/s | viscosity (323.15 K, x1 = 0.6922): 15.17 mPa·s | speed of sound (323.15 K, x1 = 0.9035): 1349.7 m/s | viscosity (323.15 K, x1 = 0.9035): 23.24 mPa·s | speed of sound (323.15 K, x1 = 1): 1338.8 m/s | viscosity (323.15 K, x1 = 1): 30.6 mPa·s

Reference: a compilation of properties of binary mixtures (doi:10.1016/j.molliq.2020.112481)
